# Measurements: patent publication US7932291B2, “Use of L-carnitine and its alkanoyl derivatives as osmotic agents in solutions for medical use” (Sigma-Tau Industrie Farmaceutiche Riunite S.p.A., priority 1999, dated 2011)
# System: male Sprague-Dawley rats
# Experiment: In-vivo peritoneal dialysis in rats: fluid volume recovered from the peritoneum
# Design: species or system rat
# Experimental: The peritoneal dialysis experiment was conducted in male Sprague-Dawley rats weighing 500-600 g (Charles River) maintained on a standard diet with water ad libitum. The animals were anaesthetized with an intraperitoneal injection of inactin (100 mg/kg) and were placed on an operating table at controlled temperature. The animals were submitted to a tracheostomy to cannulate the left jugular vein with a PESO medical silicone tube. Thirty minutes after administration of the anaesthetic the animals were infused with a saline solution at a rate of 2.3 ml/h throughout the period of the experiment. The dialysis solution (15 ml), after preheating to 37° C., was inoculated into the peritoneal cavity with a 15 teflon needle-cannula 1 h after administration of the anaesthetic. The amount of fluid injected was determined by weighing the syringe before and after injection of the fluid, using an electronic scale. At the end of each analysis period (2, 4 and 6 h), incisions were made in the rats' abdomens with an acusector and all the fluid present in the peritoneum was aspirated with a 1 ml syringe. After removing the surface fluid, the intestines were carefully shifted from the abdominal cavity to collect the residual fluid remaining on the dorsal wall. The fluid recovered was placed in a beaker and weighed. […]
structure (smiles),measurement,setting,value
"C[N+](C)(C)C[C@H](O)CC(=O)[O-] [Carnitine, L-carnitine]",Quality as osmotic agent compared with glucose,"rat peritoneal dialysis, 1.5-4.25%",at least as good as glucose
same,Time by which the increase in intraperitoneal fluid volume is completed / peak activity reached,"rat, all concentrations used (1.5, 2.5, 4.25%)",≤ 2 h
